Measurements taken from patent US20250057959A1, “PHOSPHANE GOLD(I)-N-HETEROCYCLIC CARBENE COMPLEXES FOR TREATING CANCER” (KING FAHD UNIVERSITY OF PETROLEUM AND MINERALS, priority 2023, published 2025).
Entries after “also recorded” stand apart in the source; their conditions may differ.

What was measured:
[1] = system: tumor xenografts derived from SKOV3 cells; assay: SKOV3 xenograft tumor growth in athymic nude mice; type: in vivo; details: two injections/week
Protocol: Animal experimentation was reviewed and approved by Centro di Riferimento Oncologico di Aviano (CRO) Institutional Organism for Animal Wellbeing (OPBA) and approved by the Italian Ministry of Health (No. 671/2015/PR). All animal experiments were conducted in adherence to the international and institutional committees' ethical guidelines. Ten 4-week-old female athymic nude NU(NCr)-Foxn1^nu mice were purchased from Charles Rivers (Lecco, Italy). SKOV3 (10×10^6 cells/animal) were suspended in BD Matrigel basement membrane matrix (BD Biosciences) (diluted 1:3 in PBS) and inoculated into the animals' right flank. When tumors were palpable, animals were divided into two groups of five mice each, and treated with intratumoral injection of complex 6 (2 mg/kg) or vehicle (10% DMSO, 20% Cremophor Sigma-Aldrich, 70% PBS) two times a week. Body weight and tumors were examined regularly. Tumor size was measured using a digital caliper, and volumes were calculated according to the formula (width^2×length×3.14)/6.

A2780cis = assay: MTT cell viability assay, cisplatin-resistant A2780cis; type: cell-based, human; details: for Fold resistance (A2780cis/A2780): IC50 A2780cis/IC50 A2780
Source text: Human epithelial ovarian cancer A2780 cell line and its cisplatin-resistant clone A2780cis were obtained from Sigma-Aldrich (Milano, Italy). SKOV3 (HTB-77) cells were from the American Type Culture Collection (ATCC). The two cell lines were selected to reflect the two different stages of OvCa and different sensitivity to cisplatin. A2780 cell lines were derived from the ovarian tumor tissue of an untreated patient, while SKOV3 was from the ascitic fluids (after metastasis). […] Cell lines were cultured in RPMI-1640 medium containing 10% fetal bovine serum (FBS) (Gibco, Thermo Fisher Scientific, U.S.A), 1% (v/v) of penicillin (10,000 units/mL)-streptomycin (10 mg/mL), and 1% (v/v) L-glutamine (200 mM) (all from Sigma- Aldrich) at 37° C. in a 5% CO2 fully humidified atmosphere. […] Cisplatin was included as a reference drug. […] Fold resistance was calculated as the ratio of the IC50 of the A2780cis to that of the parental cell line A2780.

A2780 and A2780cis cells = assay: Apoptosis by flow cytometry (annexin-V/7AAD, caspase-3,7, BAX, Bcl-2); type: cell-based, human
Protocol: Results were detected by flow cytometry on a BD FACSCanto II flow cytometer. Data were analyzed using BD FACSDiva version 8.0.1 software (BD Biosciences) unless otherwise indicated. To evaluate apoptosis, tumor cells were treated for 48 hours and then stained for 15 minutes with FITC annexin-V (Thermo Fisher Scientific) and 7AAD (BD Pharmingen). […] For B-cell lymphoma/leukemia-2 (Bcl-2) and Bcl-2 associated x protein (Bax) evaluation, cells were fixed and permeabilized using FIX & PERM cell fixation and cell permeabilization kit (Life Technologies). […] The distribution of cells in different cell cycle phases was quantified using ModFit LT 4.0 software (Verity Software House, Topsham, ME, USA).

SKOV3-MCTSs [2] = assay: SKOV3-MCTS spheroid volume; type: cell-based, human; details: for SKOV3-MCTS volume decrease with respect to control: 0.5 μM
Protocol: To generate single spheroids with defined size, 1.0×10^3/mL SKOV3 cells were seeded 4 days under nonadherent conditions in U-bottom 96-well plates coated twice with 20 mg/mL of poly(2-hydroxyethyl methacrylate) (poly-HEMA; Sigma) in 95% ethanol. Spheroid size was measured at days 0, 3, and 7 after drug treatment initiation using an inverted microscope (Eclipse TS/100, Nikon, Tokyo, Japan) with photomicrographic systems DS camera control unit DS-L2. Spheroid volumes were calculated using the formula (width^2×length×3.14)/6.

SKOV3-MCTSs [3] = assay: Apoptosis, mitROS and DNA-DSBs in SKOV3-MCTSs; type: cell-based, human
Protocol: To obtain multiple spheroids, 5.0×10^4/mL SKOV3 cells were seeded in nonadherent conditions on poly-HEMA coated wells for 4 days. After drug treatment, viable cells were evaluated using PrestoBlue cell viability reagent (Thermo Fisher Scientific, Frederick, MD, USA) or alternatively trypsinized to a single cell suspension for further analysis.
2.0×10^5/mL A2780 and A2780cis cells were seeded in 6-well plates in complete medium and treated with complex 6 (0.15 μM and 0.5 μM). Results were detected by flow cytometry on a BD FACSCanto II flow cytometer. Data were analyzed using BD FACSDiva version 8.0.1 software (BD Biosciences) unless otherwise indicated. To evaluate apoptosis, tumor cells were treated for 48 hours and then stained for 15 minutes with FITC annexin-V (Thermo Fisher Scientific) and 7AAD (BD Pharmingen). […] For B-cell lymphoma/leukemia-2 (Bcl-2) and Bcl-2 associated x protein (Bax) evaluation, cells were fixed and permeabilized using FIX & PERM cell fixation and cell permeabilization kit (Life Technologies). For ROS generation, cells were stained with 5 μM MitoSOX red mitochondrial superoxide indicator (ThermoFisher Scientific) in a working solution for 30 minutes at 37° C. Cell cycle analysis was performed after 24 hours treatment with complex 6. Cells were harvested, fixed in cold 70% ethanol for 15 minutes, and stained with propidium iodide (PI) solution ([…] PI, 0.1% NP-40, 100 µg/mL PureLink RNase A, 0.1% sodium citrate) for 1 hour. The distribution of cells in different cell cycle phases was quantified using ModFit LT 4.0 software (Verity Software House, Topsham, ME, USA).
Whole-cell lysates were prepared using cold RIPA buffer [150 mM NaCl, 50 mM Tris-HCl (pH 8), 0.1% SDS, 1% Igepal, and 0.5% desoxycholate sodium] containing a protease inhibitor cocktail (Roche Diagnostics S.p.a., Milan, Italy), phosphatase inhibitors 1 mM Na3VO4 and 1 mM NaF (Sigma-Aldrich). Protein concentrations were determined using the BioRad protein assay (Bio-Rad Laboratories, Inc., CA, USA). Equal amounts of proteins were mixed with Laemmli buffer, separated in 4-20% SDS-PAGE (Criterion Precast Gel, BioRad), and blotted onto a nitrocellulose membrane (Amersham, GE Healthcare). Membrane strips were blocked with EveryBilot blocking buffer (Bio-Rad) and incubated at 4° C. overnight with primary antibodies probed with the appropriate antibodies (Table 2) and developed using Immobilon Western chemioluminescent HRP substrate. Images were acquired using a ChemiDoc XRS system (Bio-Rad).

## CC(C)c1cccc(C(C)C)c1-n1ccn(-c2c(C(C)C)cccc2C(C)C)[c]1=[Au+][PH](C1CCCCC1)(C1CCCCC1)C1CCCCC1.F[P-](F)(F)(F)(F)F [Complex 6, [Au(IPr)(C18H33P)] PF6]
[1]; 2 mg/kg intratumoral
  Reduction of tumor volume with respect to vehicle-treated mice: more than 80%
  Tumor mass weight: reduced
[1]; day 35, 2 mg/kg intratumoral, control 869.5±61.9
  Mean tumor volume: 155.8±84.5 mm^3
A2780cis; 72 hours treatment, MTT
  IC50: 120 ± 10 nM
A2780cis
  Fold resistance (A2780cis/A2780): 0.86
A2780cis; listed as complex 6
  Fold resistance (A2780cis/A2780): 0.86
A2780 and A2780cis cells; 48 hours, complex 6 and auranofin at IC50 and IC75, cisplatin 0.15 μM and 0.50 μM
  Apoptosis (annexin-V / 7AAD positive cells): increased in a dose-dependent manner
A2780 and A2780cis cells; FLICA, flow cytometry
  Caspase-3,7 activation: activated caspase-3,7
A2780 and A2780cis cells; flow cytometry
  BAX expression: induced the proapoptotic BAX
  BCL-2 expression: down-regulated the antiapoptotic BCL-2
SKOV3-MCTSs [2]; 3 days
  SKOV3-MCTS volume decrease with respect to control: about 60%
SKOV3-MCTSs [2]; 7 days
  SKOV3-MCTS volume decrease with respect to control: about 75%
SKOV3-MCTSs [2]; 1 μM
  Effect on SKOV3-MCTSs at 1 μM: almost entirely diminished the SKOV3-MCTSs; also recorded: completely destroyed spheroids; also recorded: completely destroyed SKOV3-MCTSs
SKOV3-MCTSs [3]; 24 hours
  mitROS generation in SKOV3-MCTSs: increased mitROS generation
SKOV3-MCTSs [3]; FLICA
  Caspase-3,7 activation in SKOV3-MCTSs: caused the activation of caspase-3,7
SKOV3-MCTSs [3]; annexin-V-FITC/7AAD, flow cytometry
  Annexin-V+ cells in SKOV3-MCTSs: caused an increase of annexin-V+ cells
SKOV3-MCTSs [3]; western blot
  DNA-DSBs (γH2AX) in SKOV3-MCTSs: induced DNA-DSBs
